Test results taken from US20200405696A1, “INHIBITORS OF INDOLEAMINE 2,3-DIOXYGENASE AND/OR TRYPTOPHAN 2,3-DIOXYGENASE” (IDORSIA PHARMACEUTICALS LTD, priority 2018, published 2020).

Legend:
[1] = biological target: T1, Recombinant full-length human IDO1 (Homo sapiens, UniProt P14902); assay: IDO1 enzymatic assay (NFK quantified by LCMS); format: biochemical; details: 2 nM enzyme, 5 μM L-tryptophan, pH6.5, 30 minutes pre-incubation at RT; mean values when measured multiple times; read-out: hIDO activity (IC50 in nM)
T1 construct: Recombinant full-length human IDO1 with a N-terminal hexahistidine tag; hexahistidine (His6) (N); made in house; host or cells: E. coli
Summary of the method: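 IC50 comes from four-parameter logistic fits of duplicate data, with NFK quantified by LCMS and normalized to L-Trp-(indole-d5). Compound (0.5 nM–10 μM) was preincubated 30 min at RT with 2 nM E. coli-expressed IDO1 before a 30 min reaction with 5 μM tryptophan in pH 6.5 buffer containing ascorbate and methylene blue.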

[2] = biological target: T2, Recombinant human TDO comprising amino acids 19-407 (Homo sapiens, UniProt P48775); assay: TDO2 enzymatic assay (NFK quantified by LCMS); format: biochemical; details: 15 nM enzyme, 200 μM L-tryptophan, pH7, 30 minutes pre-incubation at RT; mean values when measured multiple times; read-out: hTDO activity (IC50 in nM)
T2 construct: Recombinant human TDO comprising amino acids 19-407 with a N-terminal hexahistidine tag; hexahistidine (His6) (N); made in house; host or cells: E. coli
Summary of the method: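 NFK formed over 30 min at RT from 200 μM L-tryptophan was measured by LCMS, normalized to d5-tryptophan, after compound (0.5 nM–10 μM, duplicates, 0.6% DMSO) was preincubated 30 min with 15 nM recombinant His-tagged TDO 19-407 in phosphate buffer pH 7. IC50 from four-parameter logistic fit; repeats averaged.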

T1 sequence (P14902 whole entry): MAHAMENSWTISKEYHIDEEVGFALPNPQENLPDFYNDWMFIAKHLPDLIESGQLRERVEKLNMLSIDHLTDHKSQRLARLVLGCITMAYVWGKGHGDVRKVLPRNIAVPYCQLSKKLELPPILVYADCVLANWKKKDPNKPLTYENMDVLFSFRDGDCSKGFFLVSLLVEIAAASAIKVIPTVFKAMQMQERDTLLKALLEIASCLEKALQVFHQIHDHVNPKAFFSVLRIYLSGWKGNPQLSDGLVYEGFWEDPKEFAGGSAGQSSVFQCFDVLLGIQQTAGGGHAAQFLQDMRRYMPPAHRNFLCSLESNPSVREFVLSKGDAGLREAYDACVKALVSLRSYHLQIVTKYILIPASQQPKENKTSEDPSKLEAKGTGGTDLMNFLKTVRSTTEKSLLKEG
T2 sequence (P48775 19-406 limits assumed): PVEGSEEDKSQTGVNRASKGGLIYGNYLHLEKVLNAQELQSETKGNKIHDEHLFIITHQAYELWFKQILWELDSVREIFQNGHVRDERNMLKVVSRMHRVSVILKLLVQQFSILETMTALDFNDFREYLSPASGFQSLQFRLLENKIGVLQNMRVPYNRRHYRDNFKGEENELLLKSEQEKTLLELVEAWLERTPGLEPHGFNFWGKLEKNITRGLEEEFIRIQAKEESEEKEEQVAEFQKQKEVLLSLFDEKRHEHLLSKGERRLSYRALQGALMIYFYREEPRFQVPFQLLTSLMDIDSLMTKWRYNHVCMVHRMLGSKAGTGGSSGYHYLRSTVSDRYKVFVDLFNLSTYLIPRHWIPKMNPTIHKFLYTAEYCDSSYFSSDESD

| IC50 [1] [nM] | IC50 [2] [nM] | Compound |
| --- | --- | --- |
| 93.3 | > 10200 | CCc1sc2cncn2c1C(O)c1cn(-c2ccc(C(=O)N3CCOCC3)cc2)nn1 (racemic) [Example 117, rac-(4-{4-[(2-Ethyl-imidazo[5,1-b]thiazol-3-yl)-hydroxy-methyl]-[1,2,3]triazol-1-yl}-phenyl)-morpholin-4-yl-methanone] |
| 15.8 | 9550 | CCc1sc2cncn2c1C(O)c1cn(-c2ccc(C(=O)NCCO)cc2)nn1 (racemic) [Example 118, rac-4-{4-[(2-Ethyl-imidazo[5,1-b]thiazol-3-yl)-hydroxy-methyl]-[1,2,3]triazol-1-yl}-N-(2-hydroxy-ethyl)-benzamide] |
| 133 | 9720 | CCc1sc2cncn2c1C(O)c1cn(-c2ccc(C(=O)NCCN(C)C)cc2)nn1 (racemic) [Example 119, rac-N-(2-Dimethylamino-ethyl)-4-{4-[(2-ethyl-imidazo[5,1-b]thiazol-3-yl)-hydroxy-methyl]-[1,2,3]triazol-1-yl}-benzamide] |
| 11 | > 10200 | CCc1sc2cncn2c1C(O)c1cn(-c2ccc(NC(=O)C(C)(C)C)cc2)nn1 (racemic) [Example 120, rac-N-(4-{4-[(2-Ethyl-imidazo[5,1-b]thiazol-3-yl)-hydroxy-methyl]-[1,2,3]triazol-1-yl}-phenyl)-2,2-dimethyl-propionamide] |
| 32 | 7720 | CCc1sc2cncn2c1C(O)c1cn(-c2ccc(NC(=O)N3CCOCC3)cc2)nn1 (racemic) [Example 121, rac-Morpholine-4-carboxylic acid (4-{4-[(2-ethyl-imidazo[5,1-b]thiazol-3-yl)-hydroxy-methyl]-[1,2,3]triazol-1-yl}-phenyl)-amide] |
| 25.6 | 2070 | CCCCNC(=O)Nc1ccc(-n2cc(C(O)c3c(CC)sc4cncn34)nn2)cc1 (racemic) [Example 122, rac-1-Butyl-3-(4-{4-[(2-ethyl-imidazo[5,1-b]thiazol-3-yl)-hydroxy-methyl]-[1,2,3]triazol-1-yl}-phenyl)-urea] |
| 8.09 | 6770 | CCc1sc2cncn2c1C(O)c1cn(-c2ccc(C(=O)NCc3ccco3)cc2)nn1 (racemic) [Example 123, rac-4-{4-[(2-Ethyl-imidazo[5,1-b]thiazol-3-yl)-hydroxy-methyl]-[1,2,3]triazol-1-yl}-N-furan-2-ylmethyl-benzamide] |
| 109 | > 10200 | CCc1sc2cncn2c1C(O)c1cn(-c2ccc(C(=O)N(C)CC)cc2)nn1 (racemic) [Example 124, rac-N-Ethyl-4-{4-[(2-ethyl-imidazo[5,1-b]thiazol-3-yl)-hydroxy-methyl]-[1,2,3]triazol-1-yl}-N-methyl-benzamide] |
| 15 | 8710 | CCc1sc2cncn2c1C(O)c1cn(-c2ccc(C(=O)NC3CC3)cc2)nn1 (racemic) [Example 125, rac-N-Cyclopropyl-4-{4-[(2-ethyl-imidazo[5,1-b]thiazol-3-yl)-hydroxy-methyl]-[1,2,3]triazol-1-yl}-benzamide] |
| 20.1 | > 10200 | CCc1sc2cncn2c1C(O)c1cn(-c2ccc(C(=O)NCCCOC)cc2)nn1 (racemic) [Example 126, rac-4-{4-[(2-Ethyl-imidazo[5,1-b]thiazol-3-yl)-hydroxy-methyl]-[1,2,3]triazol-1-yl}-N-(3-methoxy-propyl)-benzamide] |
| 8.21 | 7750 | CCc1sc2cncn2c1C(O)c1cn(-c2ccc(NC(=O)C(C)C)cc2)nn1 (racemic) [Example 127, rac-N-(4-{4-[(2-Ethyl-imidazo[5,1-b]thiazol-3-yl)-hydroxy-methyl]-[1,2,3]triazol-1-yl}-phenyl)-isobutyramide] |
| 16.5 | 9780 | CCNC(=O)c1ccc(-n2cc(C(O)c3c(CC)sc4cncn34)nn2)cc1 (racemic) [Example 128, rac-N-Ethyl-4-{4-[(2-ethyl-imidazo[5,1-b]thiazol-3-yl)-hydroxy-methyl]-[1,2,3]triazol-1-yl}-benzamide] |
| 9.29 | 9780 | C=CCNC(=O)c1ccc(-n2cc(C(O)c3c(CC)sc4cncn34)nn2)cc1 (racemic) [Example 129, rac-N-Allyl-4-{4-[(2-ethyl-imidazo[5,1-b]thiazol-3-yl)-hydroxy-methyl]-[1,2,3]triazol-1-yl}-benzamide] |
| 13.1 | > 10200 | CCc1sc2cncn2c1C(O)c1cn(-c2ccc(C(=O)NCCC#N)cc2)nn1 (racemic) [Example 130, rac-N-(2-Cyano-ethyl)-4-{4-[(2-ethyl-imidazo[5,1-b]thiazol-3-yl)-hydroxy-methyl]-[1,2,3]triazol-1-yl}-benzamide] |
| 22.3 | 2150 | CCc1sc2cncn2c1C(O)c1cn(-c2ccc(NC(N)=O)cc2)nn1 (racemic) [Example 131, rac-(4-{4-[(2-Ethyl-imidazo[5,1-b]thiazol-3-yl)-hydroxy-methyl]-[1,2,3]triazol-1-yl}-phenyl)-urea] |
| 18.2 | 1770 | COC(=O)Nc1ccc(-n2cc(C(O)c3c(C4CC4)sc4cncn34)cn2)cc1 (racemic) [Example 132, rac-(4-{4-[(2-Cyclopropyl-imidazo[5,1-b]thiazol-3-yl)-hydroxy-methyl]-pyrazol-1-yl}-phenyl)-carbamic Acid Methyl Ester] |
| 24.2 | > 10200 | OC(c1cn(-c2ccccc2)nn1)c1c(C(F)(F)F)sc2cncn12 (racemic) [Example 133, rac-(1-Phenyl-1H-[1,2,3]triazol-4-yl)-(2-trifluoromethyl-imidazo[5,1-b]thiazol-3-yl)-methanol] |
| 11.4 | > 10200 | COc1ccc(-n2cc(C(O)c3c(C(F)(F)F)sc4cncn34)nn2)cc1 (racemic) [Example 134, rac-[1-(4-Methoxy-phenyl)-1H-[1,2,3]triazol-4-yl]-(2-trifluoromethyl-imidazo[5,1-b]thiazol-3-yl)-methanol] |
| 14 | > 10200 | COc1ccc(-n2cc(C(O)c3c(C4CC4)sc4cncn34)nn2)cc1C#N (racemic) [Example 135, rac-5-{4-[(2-Cyclopropyl-imidazo[5,1-b]thiazol-3-yl)-hydroxy-methyl]-[1,2,3]triazol-1-yl}-2-methoxy-benzonitrile] |
| 10.8 | > 10200 | OCCOc1ccc(-n2cc(C(O)c3c(C4CC4)sc4cncn34)nn2)cc1 (racemic) [Example 136, rac-2-(4-{4-[(2-Cyclopropyl-imidazo[5,1-b]thiazol-3-yl)-hydroxy-methyl]-[1,2,3]triazol-1-yl}-phenoxy)-ethanol] |
| 11.1 | > 10200 | OCCCOc1ccc(-n2cc(C(O)c3c(C4CC4)sc4cncn34)nn2)cc1 (racemic) [Example 137, rac-3-(4-{4-[(2-Cyclopropyl-imidazo[5,1-b]thiazol-3-yl)-hydroxy-methyl]-[1,2,3]triazol-1-yl}-phenoxy)-propan-1-ol] |
| 16.5 | > 10200 | OCCOCCOc1ccc(-n2cc(C(O)c3c(C4CC4)sc4cncn34)nn2)cc1 (racemic) [Example 138, rac-2-[2-(4-{4-[(2-Cyclopropyl-imidazo[5,1-b]thiazol-3-yl)-hydroxy-methyl]-[1,2,3]triazol-1-yl}-phenoxy)-ethoxy]-ethanol] |
| 14.6 | > 10200 | CC(C)(O)COc1ccc(-n2cc(C(O)c3c(C4CC4)sc4cncn34)nn2)cc1 (racemic) [Example 139, rac-1-(4-{4-[(2-Cyclopropyl-imidazo[5,1-b]thiazol-3-yl)-hydroxy-methyl]-[1,2,3]triazol-1-yl}-phenoxy)-2-methyl-propan-2-ol] |
| 8.46 | > 10200 | CC(C)(O)CCOc1ccc(-n2cc(C(O)c3c(C4CC4)sc4cncn34)nn2)cc1 (racemic) [Example 140, rac-4-(4-{4-[(2-Cyclopropyl-imidazo[5,1-b]thiazol-3-yl)-hydroxy-methyl]-[1,2,3]triazol-1-yl}-phenoxy)-2-methyl-butan-2-ol] |
| 27.2 | > 10200 | CC(C)(CO)COc1ccc(-n2cc(C(O)c3c(C4CC4)sc4cncn34)nn2)cc1 (racemic) [Example 141, rac-3-(4-{4-[(2-Cyclopropyl-imidazo[5,1-b]thiazol-3-yl)-hydroxy-methyl]-[1,2,3]triazol-1-yl}-phenoxy)-2,2-dimethyl-propan-1-ol] |
| 13.3 | > 10200 | OC(c1cn(-c2ccc(OCCC3(O)CC3)cc2)nn1)c1c(C2CC2)sc2cncn12 (racemic) [Example 142, rac-1-[2-(4-{4-[(2-Cyclopropyl-imidazo[5,1-b]thiazol-3-yl)-hydroxy-methyl]-[1,2,3]triazol-1-yl}-phenoxy)-ethyl]-cyclopropanol] |
| 11.2 | > 10200 | CC1(COc2ccc(-n3cc(C(O)c4c(C5CC5)sc5cncn45)nn3)cc2)COC1 (racemic) [Example 144, rac-(2-Cyclopropyl-imidazo[5,1-b]thiazol-3-yl)-{1-[4-(3-methyl-oxetan-3-ylmethoxy)-phenyl]-1H-[1,2,3]triazol-4-yl}-methanol] |
